The nature of data set [1]: OPTIMA II: mitomycin plasma concentrations. The format is in vivo, human.
The subject of data set [2] is LG NMIBC. The following applies: dose-intensive administration as primary therapy for LG NMIBC; cited from earlier work.
[3] abbreviates: human, plasma, other: instillation, read-out: Mitomycin plasma concentration, mean (standard deviation).

For `CO[C@@]12[C@H](COC(N)=O)C3=C(C(=O)C(C)=C(N)C3=O)N1C[C@@H]1N[C@@H]12` [Mitomycin], the “Mitomycin plasma concentration, mean (standard deviation)” value in data set [1] (Pre-instillation, 6 patients, UGN-102) came out at 0 ng/mL. For the same compound, the AUC in data set [1] (human, plasma, other: instillation, read-out: Concentration-time Curve (AUC) - Mean (standard deviation)) came out at 5.69 ng·h/mL. Besides, in data set [1] (setting [3]), the concentration at 0.5 h is 0.75 ng/mL, the concentration at 1 h stood at 0.6 ng/mL, the concentration at 2 h turned out to be 0.34 ng/mL and the concentration at 3 h amounted to 1.88 ng/mL. Moreover, in data set [1] (setting [3]), the concentration at 4 h is 1.93 ng/mL, the concentration at 5 h worked out at 0.57 ng/mL and the concentration at 6 h worked out at 0.32 ng/mL. Also, in data set [1] (human, plasma, other: intravesical instillation (via urethral catheter), read-out: Concentration (Cmax)), the Cmax was found to be 2.27 ng/mL. Moreover, the CR rates in data set [2] is reported as 50-60%.

Values taken from US20250032409A1, “TREATMENT OF LOW-GRADE INTERMEDIATE-RISK NON-MUSCLE-INVASIVE BLADDER CANCER WITH A THERMALLY GELLING PHARMACEUTICAL COMPOSITION CONTAINING MITOMYCIN” (priority 2023, published 2025).
